Here are results for 44 compounds from ChEMBL document CHEMBL3217481, “2-Amino-5-arylbenzoxazole derivatives as potent inhibitors of fatty acid amide hydrolase (FAAH)” (Medchemcomm, 2012).

The target of experiment [1] is T1, Fatty-acid amide hydrolase 1 (Homo sapiens, UniProt O00519).
T1 sequence (O00519 whole entry): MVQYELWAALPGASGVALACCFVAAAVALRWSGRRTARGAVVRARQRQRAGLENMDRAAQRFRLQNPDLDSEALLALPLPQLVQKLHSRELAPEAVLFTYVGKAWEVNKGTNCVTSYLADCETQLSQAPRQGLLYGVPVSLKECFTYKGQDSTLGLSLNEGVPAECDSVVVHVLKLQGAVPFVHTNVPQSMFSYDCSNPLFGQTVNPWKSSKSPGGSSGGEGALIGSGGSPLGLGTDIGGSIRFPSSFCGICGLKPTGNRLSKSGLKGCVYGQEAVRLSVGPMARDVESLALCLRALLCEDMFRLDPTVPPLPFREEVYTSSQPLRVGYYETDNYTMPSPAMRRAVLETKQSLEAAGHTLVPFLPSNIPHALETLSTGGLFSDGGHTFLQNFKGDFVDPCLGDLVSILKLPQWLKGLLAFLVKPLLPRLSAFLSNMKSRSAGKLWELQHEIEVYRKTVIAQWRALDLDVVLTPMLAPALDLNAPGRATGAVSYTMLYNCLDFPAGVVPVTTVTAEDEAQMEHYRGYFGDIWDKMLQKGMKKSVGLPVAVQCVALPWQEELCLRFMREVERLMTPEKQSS
The experiment is described as follows: Inhibition of human FAAH expressed in HEK293 cells using arachadonyl 7-amino 4-methyl coumarin amide as substrate by fluorimetric assay. The class given is cell-based.

The nature of experiment [2]: Inhibition of rabbit brain FAAH. More on the design: species or system Oryctolagus cuniculus.
A short description of experiment [3]: Inhibition of guinea pig brain FAAH. More on the design: species or system Cavia porcellus.
Experiment [4] deals with T2, Fatty-acid amide hydrolase 1 (Rattus norvegicus, UniProt P97612).
T2 sequence (P97612 whole entry): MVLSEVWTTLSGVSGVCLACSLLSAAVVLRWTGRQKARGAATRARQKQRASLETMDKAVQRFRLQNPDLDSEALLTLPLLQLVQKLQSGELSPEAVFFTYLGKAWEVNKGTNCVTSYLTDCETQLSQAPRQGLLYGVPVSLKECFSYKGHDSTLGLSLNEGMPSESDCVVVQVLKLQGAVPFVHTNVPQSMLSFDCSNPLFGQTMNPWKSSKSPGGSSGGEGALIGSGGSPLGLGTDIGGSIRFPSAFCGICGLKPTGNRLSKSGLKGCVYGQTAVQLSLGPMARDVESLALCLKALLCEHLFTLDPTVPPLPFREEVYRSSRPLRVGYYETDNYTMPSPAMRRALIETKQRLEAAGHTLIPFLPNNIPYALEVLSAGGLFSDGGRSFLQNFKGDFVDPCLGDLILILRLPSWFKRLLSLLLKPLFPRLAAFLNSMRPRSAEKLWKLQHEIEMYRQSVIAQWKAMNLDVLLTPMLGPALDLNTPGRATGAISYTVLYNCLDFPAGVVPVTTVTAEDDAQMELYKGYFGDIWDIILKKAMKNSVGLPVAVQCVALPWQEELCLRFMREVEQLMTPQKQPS
The experiment is described as follows: Inhibition of rat FAAH expressed in HEK293 cells using arachadonyl 7-amino 4-methyl coumarin amide as substrate by fluorimetric assay. In kind it is cell-based.

Experiment [5] has as its target T1, Fatty-acid amide hydrolase 1. Briefly: Reversible inhibition of full length human FAAH assessed as inhibition of 3[H]-anandamide hydrolysis preincubated for 3 hrs measured after 15 mins post substrate addition by cell-based assay.

As for `Cn1ccc2cc(-c3ccc4oc(N5CCN(c6ccccc6)CC5)nc4c3)ccc21`, the IC50 in experiment [1] came to 63 nM.

As for `c1cnc2ccc(-c3ccc4oc(NC5CCCCC5)nc4c3)cc2c1`, the IC50 in experiment [1] was above 1000 nM. Same read-out and setting: next, `Cn1ncc2c(-c3ccc4oc(NC5CCCCC5)nc4c3)cccc21`: 52 nM; `Cn1ccc2cc(-c3ccc4oc(Nc5ccccn5)nc4c3)ccc21`: 186 nM. On the same count and under the same terms, next, `Cn1ncc2cc(-c3ccc4oc(NC5CCCCC5)nc4c3)ccc21`: 61 nM. Regarding `O=C(Nc1ccccc1)N1CCC(Cc2cnc3ccccc3c2)CC1`, the IC50 in experiment [2] came out at 0.8 nM; in experiment [3], 66 nM; in experiment [4], 17 nM. `COc1cc(-c2ccc3oc(N4Cc5ccccc5C4)nc3c2)ccn1` returned an IC50 in experiment [1] of 10 nM. On the same count and under the same terms, to `N#Cc1cc(-c2ccc3oc(NC4CCCCC4)nc3c2)ccc1O` belongs 54 nM; to `CN(c1ccccc1)c1nc2cc(-c3ccc4c(ccn4C)c3)ccc2o1`, 68 nM.

In the case of `CCCCCCCC/C=C\CCCCCCCC(=O)C(F)(F)F`, the IC50 in experiment [5] is 187 nM. `NC(=O)c1cccc(-c2ccc3oc(NC4CCCCC4)nc3c2)c1` registered an IC50 in experiment [1] above 1000 nM. On the same count and under the same terms, to `c1cc2c(ccn2C2COC2)cc1-c1ccc2oc(NC3CCCCC3)nc2c1` belongs 579 nM; to `c1ccc2c(c1)CN(c1nc3cc(-c4ccc5nccn5c4)ccc3o1)C2`, 14 nM; to `Cn1ncc2c(-c3ccc4oc(N5Cc6ccccc6C5)nc4c3)cccc21`, 3.2 nM. Still for that read-out and setting: to `COCc1ccc(-c2ccc3oc(N4Cc5ccccc5C4)nc3c2)cc1` belongs 10 nM; to `COc1ccc(Nc2nc3cc(-c4ccc5c(ccn5C)c4)ccc3o2)cc1`, 280 nM. The same measure, in the same setting: to `Cn1ccc2cc(-c3ccc4oc(Nc5cccnc5)nc4c3)ccc21` belongs 226 nM. In experiment [1], `C[C@@H]1CN(c2nc3cc(-c4ccc5c(ccn5C)c4)ccc3o2)C[C@H](C)O1` gave a concentration for half-maximal inhibition (IC50) of 168 nM.

In experiment [1], `Cn1ncc2cc(-c3ccc4oc(N5Cc6ccccc6C5)nc4c3)ccc21` returned a half-inhibitory concentration (IC50) of 1.2 nM.

Regarding `COCc1ccc(-c2ccc3oc(N4Cc5ccccc5C4)nc3c2)cc1OC`, in experiment [1], 13 nM corresponded to half-maximal inhibition (IC50). Still for that read-out and setting: to `COc1cccc(-c2ccc3oc(N4Cc5ccccc5C4)nc3c2)c1` belongs 28 nM. Take `NC(=O)c1cccc(-c2cccc(OC(=O)NC3CCCCC3)c2)c1` [URB-597]: the IC50 in experiment [2] came out at 0.8 nM; in experiment [3], 26 nM. For `c1ccc(-c2ccc3oc(NC4CCCCC4)nc3c2)cc1`, the IC50 in experiment [1] is above 1000 nM. Still for that read-out and setting: next, `Cn1ccc2cc(-c3ccc4oc(N5CCc6ccccc6C5)nc4c3)ccc21`: 55 nM. On the same count and under the same terms, to `CCn1ccc2cc(-c3ccc4oc(NC5CCCCC5)nc4c3)ccc21` belongs 207 nM; to `Cn1ccc2cc(-c3ccc4oc(N5Cc6ccncc6C5)nc4c3)ccc21`, 121 nM. On the same count and under the same terms, next, `Cn1ccc2cc(-c3ccc4oc(NC5CCCCC5)nc4c3)ccc21`: 911 nM. As to `Cn1ccc2cc(-c3ccc4oc(N5Cc6ccccc6C5)nc4c3)ccc21`, the concentration for half-maximal inhibition (IC50) in experiment [2] was found to be 42 nM; in experiment [3], 423 nM; in experiment [5] it was 95 nM; in experiment [4] it was 413 nM; in experiment [1], 12 nM. Take `Cn1ccc2cc(-c3ccc4oc(N5Cc6cccnc6C5)nc4c3)ccc21`: inhibition in experiment [1] was half-maximal at 211 nM (IC50). On the same count and under the same terms, to `Cn1ccc2cc(-c3ccc4oc(N5CCNCC5)nc4c3)ccc21` belongs above 1000 nM. For the compound `CCn1ccc2cc(-c3ccc4oc(Nc5ccccc5)nc4c3)ccc21`, the IC50 in experiment [2] is 98 nM; in experiment [3], 424 nM; in experiment [5], 92 nM; in experiment [4], 586 nM; in experiment [1], 18 nM. Turning to `Cn1ccc2cc(-c3ccc4oc(N5CCn6cccc6C5)nc4c3)ccc21`, it took 42 nM to reach half-maximal inhibition in experiment [1] (IC50). The same measure, in the same setting: next, `Cn1ccc2cc(-c3ccc4oc(Cc5ccccc5)nc4c3)ccc21`: 488 nM; `Cn1ccc2cc(-c3ccc4nc(N5Cc6ccccc6C5)oc4c3)ccc21`: above 1000 nM.

The compound `NC(=O)Cn1ccc2cc(-c3ccc4oc(NC5CCCCC5)nc4c3)ccc21` yielded an IC50 in experiment [1] of 214 nM. On the same count and under the same terms, next, `Cn1ccc2cc(-c3cccc4nc(N5Cc6ccccc6C5)oc34)ccc21`: above 1000 nM. The same measure, in the same setting: next, `Cn1ccc2cc(-c3ccc4oc(Nc5ccc(F)cc5)nc4c3)ccc21`: 99 nM; `Cn1ccc2cc(-c3ccc4oc(N5CCCC5)nc4c3)ccc21`: 674 nM; `Cn1ccc2cc(-c3ccc4oc(N5CCOCC5)nc4c3)ccc21`: 784 nM. Still for that read-out and setting: to `COc1ccc(-c2ccc3oc(NC4CCCCC4)nc3c2)cc1C` belongs 228 nM; to `Cn1ccc2cc(-c3ccc4oc(Nc5ccccc5)nc4c3)ccc21`, 48 nM. Compound `c1cc2cc(-c3ccc4oc(NC5CCCCC5)nc4c3)cnc2[nH]1` had an IC50 in experiment [1] above 1000 nM. The same measure, in the same setting: to `CNc1nc2cc(-c3ccc4c(ccn4C)c3)ccc2o1` belongs above 1000 nM; to `Cn1ccc2cc(-c3ccc4oc(Nc5ccncc5)nc4c3)ccc21`, above 1000 nM.
